Reference: PMC10247784, “Physiological activation of human and mouse bitter taste receptors by bile acids” (Communications Biology, 2023)
“And” between values parts separate entries of the source, which are not always exact repeats. Equal entries are not always repeated.

Target: T1, human TAS2R14 (Homo sapiens, UniProt Q9NYV8)
T1 construct: expressed in transfected cells; host or cells: HEK293T-Gα16gust44
T1 sequence (Q9NYV8 1-317): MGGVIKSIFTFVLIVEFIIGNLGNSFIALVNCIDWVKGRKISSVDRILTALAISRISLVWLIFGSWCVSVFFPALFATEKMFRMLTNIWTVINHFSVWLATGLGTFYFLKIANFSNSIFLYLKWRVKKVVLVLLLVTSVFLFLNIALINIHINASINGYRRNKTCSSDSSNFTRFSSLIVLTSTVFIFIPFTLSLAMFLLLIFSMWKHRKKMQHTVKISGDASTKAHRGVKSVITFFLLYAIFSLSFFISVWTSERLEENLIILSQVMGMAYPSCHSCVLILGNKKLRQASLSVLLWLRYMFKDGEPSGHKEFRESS
Test: Calcium imaging assay (FLIPR), HEK293T-Gα16gust44 cells transfected with human TAS2R14
Assay type: cell-based
Details: for RLU: TAS2R14 trace
Procedure: This set of bile acids was chosen because of their commercial availability in high purities, their diversity within the class of bile acids and their previous detection and quantitation in human blood. Stock solutions were prepared in DMSO.
As basal growth medium for the HEK293T-Gα16gust44 cell line[17],[59] served Dulbecco’s modified eagle medium (DMEM) (Thermo Fisher Scientific, Darmstadt, Germany) supplemented with 10 % fetal bovine serum (Sigma-Aldrich, Steinheim, Germany), 2 mM L-glutamine (Sigma-Aldrich, Steinheim, Germany), 100 units/ml penicillin (Sigma Aldrich, Steinheim, Germany) and 100 µg/ml streptomycin (Sigma Aldrich, Steinheim, Germany). Growth conditions were 37 °C, 5 % CO2 and saturated air-humidity[60].
HEK293T-Gα16gust44 cells were seeded on poly-D-lysine (10 µg/ml) coated 96-well plates to reach a confluence of 40-60 % the next day. For transient transfection 150 ng of plasmid DNA containing the receptor of interest and 0.3 µl lipofectamine 2000 (Thermo Fisher Scientific, Darmstadt, Germany) per well were used and transfection took place according to the manual of lipofectamine 2000. […] The empty vector DNA (mock) was transfected as negative control[14],[41].
Cells were loaded using the calcium-sensitive fluorescent dye Fluo-4-AM (Abcam, Cambridge, Great Britain) in the presence of 2.5 mM probenecid (Sigma-Aldrich, Steinheim, Germany) the day after transfection[13],[41]. 1 h after loading, cells were washed with C1 buffer using a BioTek Cell Washer, incubated in the dark for half an hour and washed again. For automated agonist application and measurement of fluorescence changes, a FLIPR^TETRA device (Molecular Devices, San José, United States) was used. Viability of cells was tested by application of 100 nM Somatostatin 14 (Bachem, Bubendorf, Switzerland)[42].
Measured data were negative control corrected by subtracting the signal of the mock-transfected cells and exported to Microsoft Excel using the FLIPR software ScreenWorks 4.2. In Microsoft Excel software, standardization of maximum fluorescence intensities to the basal fluorescence and normalization to the buffer-only control was done to calculate the relative fluorescence changes (ΔF/F).
Initial screening experiments performed in duplicate wells were confirmed by at least one replication and representative traces were selected for display. All dose-response relationships were determined by three independent experiments (biological replicates) performed in duplicates (technical replicates). Threshold concentrations, defined as lowest substance concentrations leading to statistically significant elevated fluorescence changes in receptor-transfected cells compared with empty vector-transfected cells, were determined using SigmaPlot with Student’s t-test to evaluate statistical significance (p < 0.01).

C[C@H](CCC(=O)NCC(=O)O)[C@H]1CC[C@H]2[C@@H]3[C@H](O)C[C@@H]4C[C@H](O)CC[C@]4(C)[C@H]3C[C@H](O)[C@]12C [Glycocholic Acid, glycocholic acid]
Efficacy = maximal amplitude (ΔF/F) (TAS2R14, bile acids, mean): 0.2451 | Efficacy (maximal amplitude ΔF/F), individual data points (TAS2R14, bile acids, single replicates, listed as GCA): 0.2248 and 0.2913 and 0.2191 | Δ F/F (TAS2R14, conc. 0,01 mM): 0.002092 | Δ F/F (TAS2R14, conc. 0,1 mM): 0.02639 | Δ F/F (TAS2R14, conc. 0,03 mM): 0.01392 | Δ F/F (TAS2R14, conc. 0,3 mM): 0.06546 | Δ F/F (TAS2R14, conc. 0,001 mM): 0.007446 | Δ F/F (TAS2R14, conc. 1 mM): 0.2451 | Δ F/F (TAS2R14, conc. 0,003 mM): 0.001619 | RLU (Time (s) 0): 0 RLU | RLU (Time (s) 2 (Taurocholic Acid 2.016)): -6.072 RLU | RLU (Time (s) 4 (Taurocholic Acid 4.016)): -9.1 RLU | RLU (Time (s) 6 (Taurocholic Acid 6.016)): -27.0469 RLU | RLU (Time (s) 8 (Taurocholic Acid 8.016)): -30.0405 RLU | RLU (Time (s) 12 (Taurocholic Acid 12.016)): -37.9898 RLU | RLU (Time (s) 14 (Taurocholic Acid 14.016)): -36.9901 RLU | RLU (Time (s) 16 (Taurocholic Acid 16.016)): -51.9041 RLU | RLU (Time (s) 18 (Taurocholic Acid 18.016)): -34 RLU | RLU (Time (s) 18.797 (Chenodeoxycholic Acid 18.765)): -73.9735 RLU | RLU (Time (s) 20.797 (Chenodeoxycholic Acid 20.781)): -100.333 RLU | RLU (Time (s) 22.797 (Chenodeoxycholic Acid 22.781)): -58.0996 RLU | RLU (Time (s) 24.797 (Chenodeoxycholic Acid 24.781)): -11.7946 RLU | RLU (Time (s) 26.797 (Chenodeoxycholic Acid 26.781)): -4.829 RLU | RLU (Time (s) 28.797 (Chenodeoxycholic Acid 28.781)): -12.95 RLU | RLU (Time (s) 30.797 (Chenodeoxycholic Acid 30.781)): 25.2324 RLU | RLU (Time (s) 32.797 (Chenodeoxycholic Acid 32.781)): 58.2752 RLU | RLU (Time (s) 34.797 (Chenodeoxycholic Acid 34.781)): 56.7501 RLU | RLU (Time (s) 36.797 (Chenodeoxycholic Acid 36.781)): 94.7938 RLU | RLU (Time (s) 38.797 (Chenodeoxycholic Acid 38.781)): 109.443 RLU | RLU (Time (s) 40.797 (Chenodeoxycholic Acid 40.781)): 134.729 RLU | RLU (Time (s) 42.797 (Chenodeoxycholic Acid 42.781)): 165.138 RLU | RLU (Time (s) 44.797 (Chenodeoxycholic Acid 44.781)): 223.768 RLU | RLU (Time (s) 46.797 (Chenodeoxycholic Acid 46.781)): 253.169 RLU | RLU (Time (s) 48.797 (Chenodeoxycholic Acid 48.781)): 284.606 RLU | RLU (Time (s) 50.797 (Chenodeoxycholic Acid 50.781)): 322.537 RLU | RLU (Time (s) 52.797 (Chenodeoxycholic Acid 52.781)): 365.455 RLU | RLU (Time (s) 54.797 (Chenodeoxycholic Acid 54.781)): 404.11 RLU | RLU (Time (s) 56.797 (Chenodeoxycholic Acid 56.781)): 424.679 RLU | RLU (Time (s) 58.797 (Chenodeoxycholic Acid 58.781)): 448.405 RLU | RLU (Time (s) 60.797 (Chenodeoxycholic Acid 60.781)): 513.015 RLU | RLU (Time (s) 62.797 (Chenodeoxycholic Acid 62.781)): 520.328 RLU | RLU (Time (s) 64.797 (Chenodeoxycholic Acid 64.781)): 518.587 RLU | RLU (Time (s) 66.797 (Chenodeoxycholic Acid 66.781)): 566.626 RLU | RLU (Time (s) 68.797 (Chenodeoxycholic Acid 68.781)): 571.358 RLU | RLU (Time (s) 70.797 (Chenodeoxycholic Acid 70.781)): 583.853 RLU | RLU (Time (s) 72.797 (Chenodeoxycholic Acid 72.781)): 622.789 RLU | RLU (Time (s) 74.797 (Chenodeoxycholic Acid 74.781)): 701.49 RLU | RLU (Time (s) 76.797 (Chenodeoxycholic Acid 76.781)): 688.581 RLU | RLU (Time (s) 78.797 (Chenodeoxycholic Acid 78.781)): 706.104 RLU | RLU (Time (s) 80.797 (Chenodeoxycholic Acid 80.781)): 737.493 RLU | RLU (Time (s) 82.797 (Chenodeoxycholic Acid 82.781)): 736.745 RLU | RLU (Time (s) 84.797 (Chenodeoxycholic Acid 84.781)): 766.635 RLU | RLU (Time (s) 86.797 (Chenodeoxycholic Acid 86.781)): 784.026 RLU
